These results are taken from patent US9232796B2, “Herbicidal compositions comprising 4-amino-3-chloro-5-fluoro-6-(4-chloro-2-fluoro-3-methoxyphenyl) pyridine-2-carboxylic acid or a derivative thereof and acetyl-CoA carboxylase (ACCase) inhibitors” (DOW AGROSCIENCES LLC, priority 2012, dated 2016).

In one assay the test system is CYPDI. Description: Example V post-emergence field trials in direct-seeded rice. It counts as in vivo, Cyperus difformis. The note with it: foliar, field trial Greece. As to the method:
(§1) Multiple field trials were conducted under commercial grower field conditions in Tolima, Colombia; Thessaloniki, Greece; Bianze and Copiano, Italy; and Humphrey, Ark., USA. Trials sites were located in commercially grown fields of direct-seeded rice (Oryza sativa) using standard herbicide small plot research methodology. Plots varied from 2 to 3 meter (m)×5 to 8 m (width×length) with 4 replicates per treatment. The rice crop was grown using normal cultural practices for fertilization, seeding, watering, flooding and maintenance to ensure good growth of the crop and the weeds.
(§2) All treatments in the field trials were applied using a backpack compressed air/gas sprayer with flat fan nozzles (80° or 110°) calibrated to apply 187 to 300 L/ha spray volume at approximately 200-400 kPa nozzle pressure. Commercially available products of cyhalofop-butyl (Clincher 180EC, Clincher 200EC, and Clincher SF (285 gr ai/L EC)) were mixed in water at appropriate formulated product rates to achieve the desired rates based on a unit area of application (hectare) to achieve the desired rates as shown. Treatments were rate at 19 to 58 days after application (DAA) as compared to the untreated control plants. Visual weed control was scored on a scale of 0 to 100 percent where 0 corresponds to no injury and 100 corresponds to complete kill. […]

The next assay has as its system CYPES. Description: Example V (second) postemergence foliar-applied ternary mixtures, greenhouse, direct seeded rice weeds. It counts as in vivo, Cyperus esculentus L. As to the method: The treated plants and control plants were placed in a greenhouse as described above and watered by sub-irrigation to prevent wash-off of the test compounds. After approximately 3 weeks, the condition of the test plants as compared with that of the untreated plants was determined visually and scored on a scale of 0 to 100 percent where 0 corresponds to no injury or growth inhibition and 100 corresponds to complete kill.
Colby's equation was used to determine the herbicidal effects expected from the mixtures (Colby, S. R. 1967. Calculation of the synergistic and antagonistic response of herbicide combinations. Weeds 15:20-22.).
The following equation was used to calculate the expected activity of mixtures containing three active ingredients, A, B, and C: Expected=A+B+C−((A×B+A×C+B×C)/100)+(A×B×C/10000)

The subject of assay [1] is ECHCG. Description: Example V post-emergence field trials in direct-seeded rice. It counts as in vivo, Echinochloa crus-galli. Conditions: foliar, field trial Greece. As to the method:
as §1, §2

Assay [2] has as its system ECHCG. Description: Example V (second) postemergence foliar-applied ternary mixtures, greenhouse, direct seeded rice weeds. Format: in vivo, Echinochloa crus-galli (L.) Beauv. The procedure, abridged:
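Compound A (SC, acid equivalent), an ACCase inhibitor and a third herbicide were sprayed alone and as ternary mixtures postemergence at 187 L/ha with 1.25% v/v crop oil concentrate on greenhouse plants at the 1st–4th true leaf stage (29/26 °C day/night, ~14 h photoperiod). Injury was scored visually at ~3 weeks (0–100%) against untreated plants, and Colby's equation gave the expected mixture effects.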

Values joined by “and” are separate entries in the source; they are usually repeats but may differ in a detail not shown here. Identical values can stand only once.

With `CCCCOC(=O)[C@@H](C)Oc1ccc(Oc2ccc(C#N)cc2F)cc1` [Cyhalofop-butyl, butyl(2R)-2-[4-(4-cyano-2-fluorophenoxy)phenoxy]propanoate, reference compound], the “Visual Weed Control (%) - 55-58 DAA CYPDI Obs” value in the assay with CYPDI (300 gai/ha) is 0%. The “Visual Weed Control (%) - 21 DAA CYPES Obs” value with CYPES (35 gai/ha) is recorded as 0%. The “Visual Weed Control (%) - 55-58 DAA ECHCG Obs” value with ECHCG [1] (300 gai/ha) is 29%. Also, the entries for the “Visual Weed Control (%) - 21 DAA ECHCG Obs” value with ECHCG [2] (17.5 gai/ha) and in the assay on ECHCG [2] (35 gai/ha) were 33% and 20%, respectively. Moreover, the “Visual Weed Control (%) - 22 DAA ECHCG Obs” value with ECHCG [2] (17.5 gai/ha) stood at 0%; in the assay on ECHCG [2] (35 gai/ha), 12%.
On to `COc1c(Cl)ccc(-c2nc(C(=O)OCc3ccccc3)c(Cl)c(N)c2F)c1F` [Compound A Benzyl Ester, benzyl ester of 4-amino-3-chloro-5-fluoro-6-(4-chloro-2-fluoro-3-methoxy-phenyl)pyridine-2-carboxylic acid], for which the “Visual Weed Control (%) - 55-58 DAA CYPDI Obs” value in the assay on CYPDI (24 gae/ha) amounted to 81%. Besides, the “Visual Weed Control (%) - 21 DAA CYPES Obs” value in the assay on CYPES (8 ae/ha) and with CYPES (8 gae/ha) was 70% in each case. The “Visual Weed Control (%) - 55-58 DAA ECHCG Obs” value in the assay on ECHCG [1] (24 gae/ha) came out at 6%. Further, the “Visual Weed Control (%) - 21 DAA ECHCG Obs” value is 5% in the assay on ECHCG [2] (2.19 gae/ha); 27% in the assay with ECHCG [2] (4.38 gae/ha); 38% and 45% in the assay on ECHCG [2] (8 gae/ha). Further, the “Visual Weed Control (%) - 22 DAA ECHCG Obs” value in the assay on ECHCG [2] (8 gae/ha) came to 40%; in the assay with ECHCG [2] (16 gae/ha), 58%.
